The text below walks through data of patent US20250034170A1, “SMALL MOLECULE MODULATORS OF GLUCOCEREBROSIDASE ACTIVITY AND USES THEREOF” (Vanqua Bio, Inc., priority 2021, published 2025).

A value given as a limit tells only on which side of the number the result lay.

The target of this assay is T1, GCase (Homo sapiens, UniProt P04062).
T1 construct: endogenous in cells; host or cells: HeLa cells
T1 sequence (P04062 40-536): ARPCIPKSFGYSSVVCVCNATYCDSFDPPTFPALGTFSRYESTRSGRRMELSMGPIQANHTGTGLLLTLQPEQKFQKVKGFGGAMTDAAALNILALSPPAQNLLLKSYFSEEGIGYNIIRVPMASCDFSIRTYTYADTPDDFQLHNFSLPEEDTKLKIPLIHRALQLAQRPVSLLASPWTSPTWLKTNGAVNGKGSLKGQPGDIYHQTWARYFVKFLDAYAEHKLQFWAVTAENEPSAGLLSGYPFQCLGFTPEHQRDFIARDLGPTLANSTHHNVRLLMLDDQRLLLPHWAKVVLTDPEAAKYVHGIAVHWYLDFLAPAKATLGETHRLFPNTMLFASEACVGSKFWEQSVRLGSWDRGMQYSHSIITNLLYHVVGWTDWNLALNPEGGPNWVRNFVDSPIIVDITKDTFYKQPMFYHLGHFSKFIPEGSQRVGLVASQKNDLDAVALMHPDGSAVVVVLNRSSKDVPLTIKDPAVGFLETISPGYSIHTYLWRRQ
Briefly: activation of GCase in a live cell PFB assay in HELA cells. In kind it is cell-based. To be noted: activation of GCase, EC50 ranges. On the procedure: Exemplary compounds were evaluated for activation of GCase in a live cell PFB assay in HELA cells (essentially as described in Ysselstein et al., “LRRK2 kinase activity regulates lysosomal glucocerebrosidase in neurons derived from Parkinson's disease patients” Nature Communications (2019) 10:5570). […] EC50 ranges: A: <10 μM; B: >10-50 μM; C: >50-100 μM; D: >100 μM.
As usually defined, the EC50 is the concentration giving half of the maximal effect. The low end stands for a more potent agent, the high end for a less potent agent. In turn, `Cc1nc(N2CC3(CCN(c4cnc5cnn(CC(F)F)c5n4)C3)C2)c(F)c(C(F)(F)F)n1` [Cmpd 1137] registered an EC50 of 50 to 100 µM.
Then `Cc1nc(C(F)(F)F)nc(N2CC3(CCN(c4cnc5cnn(CC(F)F)c5n4)C3)C2)c1F` [Cmpd 1138], with 10 to 50 µM; and `Cc1nc(C(F)F)cc(N2CC3(CCN(c4cnc5cnn(CC(F)F)c5n4)C3)C2)n1` [Cmpd 1139], with less than 10 µM; and `Cc1cc(N2CC3(CCN(c4cnc5cnn(CC(F)F)c5n4)C3)C2)nc(C(F)F)n1` [Cmpd 1140], with less than 10 µM.
The figure for `Cn1c(=O)n(C2COC2)c2nc(N3CCC4(CN(c5ccnc(C(F)(F)F)c5)C4)C3)ncc21` [Cmpd 1141] is less than 10 µM; for `Cn1c(=O)n(CC(F)F)c2nc(N3CCC4(CN(c5ccnc(C(F)(F)F)c5)C4)C3)ncc21` [Cmpd 1142] it is less than 10 µM.
Then `Cc1cc(N2CC3(CCN(c4cnc5c(C)nn(C6COC6)c5n4)C3)C2)nc(C(F)(F)F)n1` [Cmpd 1143], with less than 10 µM; and `Cc1nc(N2CC3(CCN(c4cnc5cnn([C@@H]6CCOC6)c5n4)C3)C2)cc(C(F)(F)F)n1` [Cmpd 1144], with less than 10 µM; and `Cc1nc(N2CC3(CCN(c4cnc5cnn([C@H]6CCOC6)c5n4)C3)C2)cc(C(F)(F)F)n1` [Cmpd 1145], with 10 to 50 µM.
On to `Cc1cc(N2CC3(CCN(c4cnc5cnn([C@H]6CCOC6)c5n4)C3)C2)nc(C(F)(F)F)n1` [Cmpd 1146], for which the EC50 is 10 to 50 µM.
The figure for `Cc1cc(N2CC3(CCN(c4cnc5cnn([C@@H]6CCOC6)c5n4)C3)C2)nc(C(F)(F)F)n1` [Cmpd 1147] is less than 10 µM; for `FC(F)Cn1ncc2ncc(N3CCC4(CC3)CN(c3cc(C(F)(F)F)ccn3)C4)nc21` [Compound 1, 7-[1-(2,2-difluoroethyl)-1H-pyrazolo[3,4-b]pyrazin-6-yl]-2-[4-(trifluoromethyl)pyridin-2-yl]-2,7-diazaspiro[3.5]nonane] it is less than 10 µM.
`FC(F)(F)c1ccncc1OC1CC2(CCCN(c3cncc(-c4nncs4)n3)C2)C1` (stereo not shown) [Compound 2, 6-[6-(1,3,4-thiadiazol-2-yl)pyrazin-2-yl]-2-{[4-(trifluoromethyl)pyridin-3-yl]oxy}-6-azaspiro[3.5]nonane] showed an EC50 of less than 10 µM.
The figure for `FC(F)Cn1ncc2ncc(N3CC4(CCN(c5cc(C(F)(F)F)ccn5)CC4)C3)nc21` [Compound 3, 2-[1-(2,2-difluoroethyl)-1H-pyrazolo[3,4-b]pyrazin-6-yl]-7-[4-(trifluoromethyl)pyridin-2-yl]-2,7-diazaspiro[3.5]nonane] is less than 10 µM; for `FC(F)Cn1ncc2ncc(N3CCCC4(CC(Oc5cccnc5C(F)(F)F)C4)C3)nc21` (stereo not shown) [Compound 4, 6-[1-(2,2-Difluoroethyl)-1H-pyrazolo[3,4-b]pyrazin-6-yl]-2-{[2-(trifluoromethyl)pyridin-3-yl]oxy}-6-azaspiro[3.5]nonane] it is less than 10 µM.
The figure for `FC(F)Cn1ncc2ncc(N3CCCC4(CCN(c5cccnc5C(F)(F)F)C4)C3)nc21` (stereo not shown) [Compound 5, 7-[1-(2,2-difluoroethyl)-1H-pyrazolo[3,4-b]pyrazin-6-yl]-2-[2-(trifluoromethyl)pyridin-3-yl]-2,7-diazaspiro[4.5]decane] is less than 10 µM.
`FC(F)Cn1ncc2ncc(N3CCC4(CCN(c5cc(C(F)(F)F)ccn5)C4)CC3)nc21` [Compound 6, 8-[1-(2,2-difluoroethyl)-1H-pyrazolo[3,4-b]pyrazin-6-yl]-2-[4-(trifluoromethyl)pyridin-2-yl]-2,8-diazaspiro[4.5]decane] displayed an EC50 of less than 10 µM.
For `FC(F)Cn1ncc2ncc(N3CCC4(CCCN(c5cccnc5C(F)(F)F)C4)C3)nc21` (stereo not shown) [Compound 7, 2-[1-(2,2-difluoroethyl)-1H-pyrazolo[3,4-b]pyrazin-6-yl]-7-[2-(trifluoromethyl)pyridin-3-yl]-2,7-diazaspiro[4.5]decane], the EC50 was less than 10 µM.
Then `FC(F)Cn1ncc2ncc(N3CC4(CCCN(c5ccnc(C(F)(F)F)c5)C4)C3)nc21` [Compound 8, 2-[1-(2,2-difluoroethyl)-1H-pyrazolo[3,4-b]pyrazin-6-yl]-6-[2-(trifluoromethyl)pyridin-4-yl]-2,6-diazaspiro[3.5]nonane], with less than 10 µM; and `FC(F)Cn1ncc2ncc(N3CC4(CCCN(c5cccnc5C(F)(F)F)C4)C3)nc21` [Compound 9, 2-[1-(2,2-difluoroethyl)-1H-pyrazolo[3,4-b]pyrazin-6-yl]-6-[2-(trifluoromethyl)pyridin-3-yl]-2,6-diazaspiro[3.5]nonane], with less than 10 µM; and `FC(F)Cn1ncc2ncc(N3CCCC4(CC(Oc5cnccc5C(F)(F)F)C4)C3)nc21` (stereo not shown) [Compound 10, 6-[1-(2,2-difluoroethyl)-1H-pyrazolo[3,4-b]pyrazin-6-yl]-2-{[4-(trifluoromethyl)pyridin-3-yl]oxy}-6-azaspiro[3.5]nonane], with less than 10 µM.
In the case of `FC(F)(F)Cn1ncc2ncc(N3CCCC4(CC(Oc5cnccc5C(F)(F)F)C4)C3)nc21` (stereo not shown) [Compound 11, 6-[1-(2,2,2-trifluoroethyl)-1H-pyrazolo[3,4-b]pyrazin-6-yl]-2-{[4-(trifluoromethyl)pyridin-3-yl]oxy}-6-azaspiro[3.5]nonane], the 50% effective concentration (EC50) was less than 10 µM.
On to `FC(F)Cn1ncc2ncc(N3CCCC4(CN(c5ccnc(C(F)(F)F)c5)C4)C3)nc21` [Compound 12, 6-[1-(2,2-difluoroethyl)-1H-pyrazolo[3,4-b]pyrazin-6-yl]-2-[2-(trifluoromethyl)pyridin-4-yl]-2,6-diazaspiro[3.5]nonane], for which the concentration giving a half-maximal response (EC50) lay in the range of 10 to 50 µM.
Then `FC(F)Cn1ncc2ncc(N3CCCC4(CC(Oc5ccnc(C(F)(F)F)c5)C4)C3)nc21` (stereo not shown) [Compound 13, 6-[1-(2,2-difluoroethyl)-1H-pyrazolo[3,4-b]pyrazin-6-yl]-2-{[2-(trifluoromethyl)pyridin-4-yl]oxy}-6-azaspiro[3.5]nonane], with 10 to 50 µM.
The figure for `FC(F)Cn1ncc2ncc(N3CC4(CCCN(c5ccc(C(F)(F)F)cn5)C4)C3)nc21` [Compound 14, 2-[1-(2,2-difluoroethyl)-1H-pyrazolo[3,4-b]pyrazin-6-yl]-6-[5-(trifluoromethyl)pyridin-2-yl]-2,6-diazaspiro[3.5]nonane] is 10 to 50 µM.
Then `FC(F)Cn1ncc2ncc(N3CCCC4(CN(c5cncc(C(F)(F)F)c5)C4)C3)nc21` [Compound 15, 6-[1-(2,2-difluoroethyl)-1H-pyrazolo[3,4-b]pyrazin-6-yl]-2-[5-(trifluoromethyl)pyridin-3-yl]-2,6-diazaspiro[3.5]nonane], with 10 to 50 µM; and `FC(F)Cn1ncc2ncc(N3CCC4(CCN(c5cc(C(F)(F)F)ccn5)CC4)C3)nc21` [Compound 16, 2-[1-(2,2-difluoroethyl)-1H-pyrazolo[3,4-b]pyrazin-6-yl]-8-[4-(trifluoromethyl)pyridin-2-yl]-2,8-diazaspiro[4.5]decane], with 10 to 50 µM; and `FC(F)Cn1ncc2ncc(N3CCCC4(C3)CN(c3cnccc3C(F)(F)F)C4)nc21` [Compound 17, 6-[1-(2,2-difluoroethyl)-1H-pyrazolo[3,4-b]pyrazin-6-yl]-2-[4-(trifluoromethyl)pyridin-3-yl]-2,6-diazaspiro[3.5]nonane], with 10 to 50 µM.
On to `FC(F)Cn1ncc2ncc(N3CCCC4(C3)CN(c3ncccc3C(F)(F)F)C4)nc21` [Compound 18, 6-[1-(2,2-difluoroethyl)-1H-pyrazolo[3,4-b]pyrazin-6-yl]-2-[3-(trifluoromethyl)pyridine-2-yl]-2,6-diazaspiro[3.5]nonane], for which the EC50 lay in the range of 10 to 50 µM.
Then `FC(F)Cn1ncc2ncc(N3CCCC4(CN(c5ccccc5)C4)C3)nc21` [Compound 19, 6-[1-(2,2-difluoroethyl)-1H-pyrazolo[3,4-b]pyrazin-6-yl]-2-phenyl-2,6-diazaspiro[3.5]nonane], with 10 to 50 µM; and `FC(F)Cn1ncc2ncc(N3CC4(CCCN(c5ccc(C(F)(F)F)nc5)C4)C3)nc21` [Compound 20, 2-[1-(2,2-difluoroethyl)-1H-pyrazolo[3,4-b]pyrazin-6-yl]-6-[6-(trifluoromethyl)pyridin-3-yl]-2,6-diazaspiro[3.5]nonane], with 10 to 50 µM.
The figure for `FC(F)Cn1ncc2ncc(N3CC4(CCCN(c5cc(C(F)(F)F)ccn5)C4)C3)nc21` [Compound 21, 2-[1-(2,2-difluoroethyl)-1H-pyrazolo[3,4-b]pyrazin-6-yl]-6-[4-(trifluoromethyl)pyridin-2-yl]-2,6-diazaspiro[3.5]nonane] is 10 to 50 µM; for `FC(F)Cn1ncc2ncc(N3CCCC4(CC(Oc5ccc(C(F)(F)F)nc5)C4)C3)nc21` (stereo not shown) [Compound 22, 6-[1-(2,2-difluoroethyl)-1H-pyrazolo[3,4-b]pyrazin-6-yl]-2-{[6-(trifluoromethyl)pyridin-3-yl]oxy}-6-azaspiro[3.5]nonane] it is 10 to 50 µM.
Then `FC(F)Cn1ncc2ncc(N3CCCC4(CN(c5cccc(C(F)(F)F)n5)C4)C3)nc21` [Compound 23, 6-[1-(2,2-difluoroethyl)-1H-pyrazolo[3,4-b]pyrazin-6-yl]-2-[6-(trifluoromethyl)pyridin-2-yl]-2,6-diazaspiro[3.5]nonane], with 10 to 50 µM.
